Where two headings read alike, the source gives them in different places.
Columns and labels:
[1] = Thermal analysis and polymorphic stability (DSC, TGA); assay type: physicochemical
Description: Polymorphism refers to the ability of a solid material to exist in more than one crystal structure or solid form.
Upon mild heating (about 50° C. to 60° C.), the water content is reduced which would make these salts and the free base form extremely difficult to handle and to process during production and formulation. In contrast the hydrate of the mono mesylate salt is thermally stable and polymorphic stable at much higher temperatures of considerably above 100° C. as judged by TGA.
Moreover, exactly one mol equivalent water is incorporated into the crystal structure wherein the hydrogen atoms of the water molecule form hydrogen bridges with oxygen atoms of two different mesylate molecules. This well-defined position in the crystal lattice (see FIG. 3) is verified by the fact that water is released from the crystal only at high temperature, starting at 160° C.

[2] = Crystallinity by X-ray diffraction, microscopy; assay type: physicochemical; conditions: X-ray diffraction, microscopy
[3] = Exposure in 26-week repeated dose toxicity study (mesylate monohydrate); assay type: in vivo; conditions: rats; for Cmax / AUC(0-t): rat, in vivo; for AUC(0-t): read-out: AUC(0-24); for Exposure ratio 26-wts/13-wts. AUC(0-24) / Exposure ratio 26-wts/13-wts. Cmax: day 1, mesylate monohydrate vs free base; for Exposure ratio 26-wts/13-wts AUC(0-24) / Exposure ratio 26-wts/13-wts Cmax: week 13, mesylate monohydrate vs free base
Description: The exposure of rats to N-[5-(aminosulfonyl)-4-methyl-1,3-thiazol-2-yl]-N-methyl-2-[4-(2-pyridinyl)phenyl]acetamide in a repeated dose 13-week toxicity study performed with the free base N-[5-(aminosulfonyl)-4-methyl-1,3-thiazol-2-yl]-N-methyl-2-[4-(2-pyridinyl)phenyl]acetamide (free base) was compared to the exposures observed in a 26-week repeated dose toxicity study performed with the mesylate monohydrate. In both studies, the test items were administered as 0.5% (w/v) tylose suspensions, and the concentrations were adjusted to the equivalents of free base N-[5-(aminosulfonyl)-4-methyl-1,3-thiazol-2-yl]-N-methyl-2-[4-(2-pyridinyl)phenyl]acetamide.

Long term stability = assay type: physicochemical; conditions: in comparison to the free base form
[4] = Pharmacokinetics, single and multiple dose applications in healthy volunteers; assay type: in vivo, humans
Text: The plasma concentrations in humans exceeded those reached in in vivo and in vitro experiments sufficient to effectively treat herpes simplex virus infections in various animal models and to prevent viral replication in cell culture.

herpes simplex viruses = experiment: Activity against herpes viruses; conditions: mainly herpes simplex viruses
[5] = Water solubility, solubility screening; conditions: water
[6] = Stability to decomposition: storage at 90° C. for one week
[7] = Stability to dissociation: stirring for one week at room temperature
[8] = female, 10 mg/kg/day, F, 10 mg/kg/day, day 1, 26-week toxicity study
[9] = female, 50 mg/kg/day, F, 50 mg/kg/day, day 1, 26-week toxicity study
[10] = female, 250 mg/kg/day, F, 250 mg/kg/day, day 1, 26-week toxicity study
[11] = male, 10 mg/kg/day, M, 10 mg/kg/day, day 1, 26-week toxicity study
[12] = male, 50 mg/kg/day, M, 50 mg/kg/day, day 1, 26-week toxicity study
[13] = male, 250 mg/kg/day, M, 250 mg/kg/day, day 1, 26-week toxicity study
[14] = mesylate monohydrate vs free base, 50 and 250 mg/kg/day

Which results are given for `CS(=O)(=O)O.Cc1nc(N(C)C(=O)Cc2ccc(-c3ccccn3)cc2)sc1S(N)(=O)=O.O` [Mesylate monohydrate, N-[5-(aminosulfonyl)-4-methyl-1,3-thiazol-2-yl]-N-methyl-2-[4-(2-pyridinyl)-phenyl]acetamide methanesulfonate monohydrate]?
Thermal stability of hydrate [1]: stable; DSC ([1]; Differential Scanning Calorimetry): loss of water before melting; TGA ([1]; Thermogravimetric Analysis): 4.3%; Temperature at which the hydrate is thermally and polymorphic stable ([1]; as judged by TGA): above 100 °C; Temperature at which water is released from the crystal ([1]; starting temperature): ≥ 160 °C; Crystallinity [2]: +; Cmax [3, 8]: 17.2 µg/mL; AUC(0-t) [3, 8]: 175 µg·h/mL; AUC(0-t) ([3]; female, 10 mg/kg/day, F, 10 mg/kg/day, week 13, 26-week toxicity study): 321 µg·h/mL; Cmax ([3]; female, 10 mg/kg/day, F, week 13, 26-week toxicity study): 26 µg/mL; Cmax [3, 9]: 77.8 µg/mL; AUC(0-t) [3, 9]: 913 µg·h/mL; AUC(0-t) ([3]; female, 50 mg/kg/day, F, 50 mg/kg/day, week 13, 26-week toxicity study): 1210 µg·h/mL; Cmax ([3]; female, 50 mg/kg/day, F, week 13, 26-week toxicity study): 106 µg/mL; Cmax [3, 10]: 146 µg/mL; AUC(0-t) [3, 10]: 2470 µg·h/mL; AUC(0-t) ([3]; female, 250 mg/kg/day, F, 250 mg/kg/day, week 13, 26-week toxicity study): 3580 µg·h/mL; Cmax ([3]; female, 250 mg/kg/day, F, week 13, 26-week toxicity study): 217 µg/mL; Cmax [3, 11]: 16.9 µg/mL; AUC(0-t) [3, 11]: 119 µg·h/mL; AUC(0-t) ([3]; male, 10 mg/kg/day, M, 10 mg/kg/day, week 13, 26-week toxicity study): 227 µg·h/mL; Cmax ([3]; male, 10 mg/kg/day, M, week 13, 26-week toxicity study): 21.8 µg/mL; Cmax [3, 12]: 70.3 µg/mL; AUC(0-t) [3, 12]: 634 µg·h/mL; AUC(0-t) ([3]; male, 50 mg/kg/day, M, 50 mg/kg/day, week 13, 26-week toxicity study): 959 µg·h/mL; Cmax ([3]; male, 50 mg/kg/day, M, week 13, 26-week toxicity study): 74.7 µg/mL; Cmax [3, 13]: 134 µg/mL; AUC(0-t) [3, 13]: 1980 µg·h/mL; AUC(0-t) ([3]; male, 250 mg/kg/day, M, 250 mg/kg/day, week 13, 26-week toxicity study): 2780 µg·h/mL; Cmax ([3]; male, 250 mg/kg/day, M, week 13, 26-week toxicity study): 169 µg/mL; Exposure ratio 26-wts/13-wts. AUC(0-24) ([3]; F, 10 mg/kg/day): 1.1; Exposure ratio 26-wts/13-wts. Cmax ([3]; F, 10 mg/kg/day): 1.1; Exposure ratio 26-wts/13-wts AUC(0-24) ([3]; F, 10 mg/kg/day): 1.5; Exposure ratio 26-wts/13-wts Cmax ([3]; F, 10 mg/kg/day): 1.0; Exposure ratio 26-wts/13-wts. AUC(0-24) ([3]; F, 50 mg/kg/day): 2.2; Exposure ratio 26-wts/13-wts. Cmax ([3]; F, 50 mg/kg/day): 2.2; Exposure ratio 26-wts/13-wts AUC(0-24) ([3]; F, 50 mg/kg/day): 2.6; Exposure ratio 26-wts/13-wts Cmax ([3]; F, 50 mg/kg/day): 2.6; Exposure ratio 26-wts/13-wts. AUC(0-24) ([3]; F, 250 mg/kg/day): 2.6; Exposure ratio 26-wts/13-wts. Cmax ([3]; F, 250 mg/kg/day): 2.1; Exposure ratio 26-wts/13-wts AUC(0-24) ([3]; F, 250 mg/kg/day): 3.1; Exposure ratio 26-wts/13-wts Cmax ([3]; F, 250 mg/kg/day): 2.6; Exposure ratio 26-wts/13-wts. AUC(0-24) ([3]; M, 10 mg/kg/day): 1.4; Exposure ratio 26-wts/13-wts. Cmax ([3]; M, 10 mg/kg/day): 1.3; Exposure ratio 26-wts/13-wts AUC(0-24) ([3]; M, 10 mg/kg/day): 1.7; Exposure ratio 26-wts/13-wts Cmax ([3]; M, 10 mg/kg/day): 1.5; Exposure ratio 26-wts/13-wts. AUC(0-24) ([3]; M, 50 mg/kg/day): 2.6; Exposure ratio 26-wts/13-wts. Cmax ([3]; M, 50 mg/kg/day): 2.3; Exposure ratio 26-wts/13-wts AUC(0-24) ([3]; M, 50 mg/kg/day): 2.9; Exposure ratio 26-wts/13-wts Cmax ([3]; M, 50 mg/kg/day): 2.5; Exposure ratio 26-wts/13-wts. AUC(0-24) ([3]; M, 250 mg/kg/day): 3.5; Exposure ratio 26-wts/13-wts. Cmax ([3]; M, 250 mg/kg/day): 2.5; Exposure ratio 26-wts/13-wts AUC(0-24) ([3]; M, 250 mg/kg/day): 4.2; Exposure ratio 26-wts/13-wts Cmax ([3]; M, 250 mg/kg/day): 2.7; Increase in extent of exposure, AUC [3, 14]: ≤ 4 fold; Increase in extent of exposure, Cmax [3, 14]: up to 2.7 fold; Long term stability (Long term stability): superior; Plasma half lives [4]: long lasting half lives; Activity against herpes viruses (herpes simplex viruses): highly active; solubility [5]: 1380 µg/mL; Stability to decomposition [6]: ++; Stability to dissociation [7]: ++

Reference: patent US9340535B2, “N-[5-(Aminosulfony1)-4-methyl-1,3-thiazol-2-yl]-N-methyl-2-[4-(2-pyridinyl)phenyl]acetamide mesylate monohydrate” (AiCuris GmbH & Co. KG, priority 2011, dated 2016)
